Our source for the DC50 and Dmax values is patent US20250215012A1, “IKZF2 DEGRADERS AND USES THEREOF” (REGENTS OF THE UNIVERSITY OF MICHIGAN, priority 2022, published 2025).

The target in this assay is IKZF2 (Homo sapiens (Human), UniProt Q96SW2+Q9UKS7). The assay is described as follows: IKZF2 HiBiT Assay (Jurkat-IKZF2-HiBiT cell line). Type of assay: cell-based. Particulars: for DC50: read-out: HiBit assay degradation analysis DC50; for Dmax: read-out: HiBit assay degradation analysis Dmax. The gist of the method:
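IKZF2 degradation was assessed as HiBiT luminescence in Jurkat-IKZF2-HiBiT cells, using lytic detection after 24 h of compound treatment at 37 °C, 5% CO2.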

Setting [1] is: Jurkat-IKZF2-HiBiT cells, 24 hours.

Like-named read-outs stand apart in the source and are kept apart here.

IKZF2, sequence (Q9UKS7 whole entry): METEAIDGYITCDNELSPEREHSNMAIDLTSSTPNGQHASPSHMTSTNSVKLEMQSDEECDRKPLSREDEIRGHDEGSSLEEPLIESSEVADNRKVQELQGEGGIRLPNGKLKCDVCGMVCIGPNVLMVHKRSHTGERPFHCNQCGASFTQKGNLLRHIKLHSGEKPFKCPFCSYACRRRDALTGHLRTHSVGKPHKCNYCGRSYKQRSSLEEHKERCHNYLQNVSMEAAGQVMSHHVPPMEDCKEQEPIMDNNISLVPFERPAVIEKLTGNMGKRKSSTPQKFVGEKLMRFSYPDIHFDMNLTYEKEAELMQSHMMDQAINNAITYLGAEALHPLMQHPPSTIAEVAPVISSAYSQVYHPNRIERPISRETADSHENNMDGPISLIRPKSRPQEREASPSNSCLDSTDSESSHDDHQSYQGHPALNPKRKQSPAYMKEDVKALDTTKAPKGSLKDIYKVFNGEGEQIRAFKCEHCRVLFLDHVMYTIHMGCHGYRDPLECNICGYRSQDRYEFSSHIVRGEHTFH
IKZF2, sequence (Q96SW2 whole entry): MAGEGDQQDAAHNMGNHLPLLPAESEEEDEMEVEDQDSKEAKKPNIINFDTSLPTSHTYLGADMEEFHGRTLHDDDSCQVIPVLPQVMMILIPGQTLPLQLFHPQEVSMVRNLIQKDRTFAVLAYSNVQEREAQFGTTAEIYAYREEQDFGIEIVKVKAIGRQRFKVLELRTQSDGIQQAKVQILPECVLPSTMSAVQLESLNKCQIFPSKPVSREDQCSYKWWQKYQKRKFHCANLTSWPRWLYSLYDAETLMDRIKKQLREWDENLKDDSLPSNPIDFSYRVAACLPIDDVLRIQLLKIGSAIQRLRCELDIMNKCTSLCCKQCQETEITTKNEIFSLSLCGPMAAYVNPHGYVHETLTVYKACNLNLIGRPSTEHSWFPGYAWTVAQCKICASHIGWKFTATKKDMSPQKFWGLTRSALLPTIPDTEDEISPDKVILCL
IKZF2, sequence (Q16531 whole entry partner): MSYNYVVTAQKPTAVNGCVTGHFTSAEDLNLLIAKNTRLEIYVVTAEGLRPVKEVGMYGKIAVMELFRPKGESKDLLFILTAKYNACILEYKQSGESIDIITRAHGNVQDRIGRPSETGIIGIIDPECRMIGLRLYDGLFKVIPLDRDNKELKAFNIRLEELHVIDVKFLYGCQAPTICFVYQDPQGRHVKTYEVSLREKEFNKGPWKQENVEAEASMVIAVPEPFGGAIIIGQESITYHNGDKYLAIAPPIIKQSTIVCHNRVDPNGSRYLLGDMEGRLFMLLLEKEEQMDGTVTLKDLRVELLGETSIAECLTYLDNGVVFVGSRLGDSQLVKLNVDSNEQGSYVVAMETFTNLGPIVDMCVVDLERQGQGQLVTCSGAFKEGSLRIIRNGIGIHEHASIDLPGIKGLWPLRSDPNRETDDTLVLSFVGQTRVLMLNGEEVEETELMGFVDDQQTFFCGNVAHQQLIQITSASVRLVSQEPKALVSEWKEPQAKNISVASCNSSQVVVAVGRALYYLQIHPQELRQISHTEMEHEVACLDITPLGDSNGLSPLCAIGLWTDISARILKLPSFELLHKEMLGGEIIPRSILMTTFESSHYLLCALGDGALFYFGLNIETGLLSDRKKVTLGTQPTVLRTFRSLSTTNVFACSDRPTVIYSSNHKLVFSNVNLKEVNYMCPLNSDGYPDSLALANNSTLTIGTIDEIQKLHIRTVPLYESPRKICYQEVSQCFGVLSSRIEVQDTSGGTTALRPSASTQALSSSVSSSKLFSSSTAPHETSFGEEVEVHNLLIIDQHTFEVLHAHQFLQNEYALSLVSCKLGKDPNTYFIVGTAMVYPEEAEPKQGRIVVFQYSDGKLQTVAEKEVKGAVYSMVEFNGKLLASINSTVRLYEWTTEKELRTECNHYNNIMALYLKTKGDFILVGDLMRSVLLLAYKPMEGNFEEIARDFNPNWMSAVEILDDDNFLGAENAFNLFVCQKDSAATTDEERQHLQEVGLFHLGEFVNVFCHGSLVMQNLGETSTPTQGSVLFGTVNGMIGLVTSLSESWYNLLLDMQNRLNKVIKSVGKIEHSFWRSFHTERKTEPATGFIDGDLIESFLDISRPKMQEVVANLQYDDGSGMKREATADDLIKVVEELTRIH

Regarding `Cn1cc(CN2CCC3(CC2)COc2c3ccc3c2CN(C2CCC(=O)NC2=O)C3=O)cn1` (stereo not drawn) [Compound A228, 3-(1′-((1-methyl-1H-pyrazol-4-yl)methyl)-6-oxo-6,8-dihydro-2H,7H-spiro[furo[2,3-e]isoindole-3,4′-piperidin]-7-yl)piperidine-2,6-dione], under setting [1], the half-maximal degradation concentration (DC50) is > 0.5 µM and the Dmax was < 40%.

Take `O=C1CCC(N2Cc3c(ccc4c3OCC43CCN(Cc4cccc5c(F)cccc45)CC3)C2=O)C(=O)N1` (stereo not drawn) [Compound A35, 3-(1′-((5-fluoronaphthalen-1-yl)methyl)-6-oxo-6,8-dihydro-2H,7H-spiro[furo[2,3-e]isoindole-3,4′-piperidin]-7-yl)piperidine-2,6-dione]: under setting [1], the half-maximal degradation concentration (DC50) was < 0.05 µM and the maximal degradation (Dmax) is > 80%.

For `O=C1CCC(N2Cc3c(ccc4c3OCCC43CCN(Cc4ccc(C(F)F)cc4)CC3)C2=O)C(=O)N1` (stereo not drawn) [Compound A9, 3-(1-(4-(difluoromethyl)benzyl)-7′-oxo-2′,3′,7′,9′-tetrahydro-8′H-spiro[piperidine-4,4′-pyrano[2,3-e]isoindol]-8′-yl)piperidine-2,6-dione], under setting [1], the 50% degradation concentration (DC50) is > 0.5 µM and the maximal degradation (Dmax) is < 40%.

For the compound `O=C1CCC(N2Cc3c(ccc4c3OCC43CCN(Cc4cccc(Oc5ccccn5)c4)CC3)C2=O)C(=O)N1` (stereo not drawn) [Compound A101, 3-(6-oxo-1′-(3-(pyridin-2-yloxy)benzyl)-6,8-dihydro-2H,7H-spiro[furo[2,3-e]isoindole-3,4′-piperidin]-7-yl)piperidine-2,6-dione], under setting [1], the 50% degradation concentration (DC50) was < 0.05 µM and the Dmax lay in the range of 60 to 80%.

For the compound `O=C1CCC(N2Cc3c(ccc4c3OCC43CCN(Cc4cncc(Cl)c4)CC3)C2=O)C(=O)N1` (stereo not drawn) [Compound A248, 3-(1′-((5-chloropyridin-3-yl)methyl)-6-oxo-6,8-dihydro-2H,7H-spiro[furo[2,3-e]isoindole-3,4′-piperidin]-7-yl)piperidine-2,6-dione], under setting [1], the half-maximal degradation concentration (DC50) was > 0.5 µM and the greatest degradation seen (Dmax) was < 40%.

For `Cn1cc(CN2CCC3(CC2)COc2c3ccc3c2CN(C2CCC(=O)NC2=O)C3=O)c(Cl)n1` (stereo not drawn) [Compound A257, 3-(1′-((3-chloro-1-methyl-1H-pyrazol-4-yl)methyl)-6-oxo-6,8-dihydro-2H,7H-spiro[furo[2,3-e]isoindole-3,4′-piperidin]-7-yl)piperidine-2,6-dione], under setting [1], the DC50 was > 0.5 µM and the Dmax is < 40%.

On to `O=C1CC[C@H](N2Cc3c(ccc4c3OCC43CCN(Cc4ccccc4)CC3)C2=O)C(=O)N1` [Compound A317, (S)-3-(1′-benzyl-6-oxo-6,8-dihydro-2H,7H-spiro[furo[2,3-e]isoindole-3,4′-piperidin]-7-yl)piperidine-2,6-dione], for which, under setting [1], the DC50 was 0.2 to 0.5 µM and the Dmax is 40 to 60%.

With `O=C1CCC(N2Cc3c(ccc4c3OCC43CCN(Cc4ccnn4-c4ccccc4)CC3)C2=O)C(=O)N1` (stereo not drawn) [Compound A246, 3-(6-oxo-1′-((1-phenyl-1H-pyrazol-5-yl)methyl)-6,8-dihydro-2H,7H-spiro[furo[2,3-e]isoindole-3,4′-piperidin]-7-yl)piperidine-2,6-dione], under setting [1], the DC50 was > 0.5 µM and the maximal degradation (Dmax) was < 40%.

`COCn1cc(-c2cccc(CN3CCC4(CC3)COc3c4ccc4c3CN([C@H]3CCC(=O)NC3=O)C4=O)c2)cn1` [Compound A294, (S)-3-(1′-(3-(1-(methoxymethyl)-1H-pyrazol-4-yl)benzyl)-6-oxo-6,8-dihydro-2H,7H-spiro[furo[2,3-e]isoindole-3,4′-piperidin]-7-yl)piperidine-2,6-dione]: under setting [1], the DC50 was < 0.05 µM and the maximal degradation (Dmax) was 60 to 80%.

Take `CC1(C)Cc2c(CN3CCC4(CC3)COc3c4ccc4c3CN(C3CCC(=O)NC3=O)C4=O)cccc2O1` (stereo not drawn) [Compound A326, 3-(1′-((2,2-dimethyl-2,3-dihydrobenzofuran-4-yl)methyl)-6-oxo-6,8-dihydro-2H,7H-spiro[furo[2,3-e]isoindole-3,4′-piperidin]-7-yl)piperidine-2,6-dione]: under setting [1], the half-maximal degradation concentration (DC50) was > 0.5 µM and the Dmax is 40 to 60%.

On to `O=C1CCC(N2Cc3c(ccc4c3OCC43CCN(Cc4cccc5cccnc45)CC3)C2=O)C(=O)N1` (stereo not drawn) [Compound A41, 3-(6-oxo-1′-(quinolin-8-ylmethyl)-6,8-dihydro-2H,7H-spiro[furo[2,3-e]isoindole-3,4′-piperidin]-7-yl)piperidine-2,6-dione], for which, under setting [1], the 50% degradation concentration (DC50) fell in the range of 0.05 to 0.2 µM and the greatest degradation seen (Dmax) was in the range of 60 to 80%.

`O=C1CC[C@H](N2Cc3c(ccc4c3OCC43CCN(Cc4cccc(-c5cnn(C(F)(F)F)c5)c4)CC3)C2=O)C(=O)N1` [Compound A282, (S)-3-(6-oxo-1′-(3-(1-(trifluoromethyl)-1H-pyrazol-4-yl)benzyl)-6,8-dihydro-2H,7H-spiro[furo[2,3-e]isoindole-3,4′-piperidin]-7-yl)piperidine-2,6-dione]: under setting [1], the half-maximal degradation concentration (DC50) was < 0.05 µM and the maximal degradation (Dmax) lay in the range of 60 to 80%.

Take `Cn1ncc2cc(CN3CCC4(CC3)COc3c4ccc4c3CN(C3CCC(=O)NC3=O)C4=O)ccc21` (stereo not drawn) [Compound A217, 3-(1′-((1-methyl-1H-indazol-5-yl)methyl)-6-oxo-6,8-dihydro-2H,7H-spiro[furo[2,3-e]isoindole-3,4′-piperidin]-7-yl)piperidine-2,6-dione]: under setting [1], the DC50 is > 0.5 µM and the Dmax is < 40%.

With `O=C1CCC(N2Cc3c(ccc4c3OCC43CCN(Cc4cc(F)cc(F)c4)CC3)C2=O)C(=O)N1` (stereo not drawn) [Compound A28, 3-(1′-(3,5-difluorobenzyl)-6-oxo-6,8-dihydro-2H,7H-spiro[furo[2,3-e]isoindole-3,4′-piperidin]-7-yl)piperidine-2,6-dione], under setting [1], the half-maximal degradation concentration (DC50) was > 0.5 µM and the greatest degradation seen (Dmax) is 40 to 60%.

As to `COCCn1cc2ccc(CN3CCC4(CC3)COc3c4ccc4c3CN([C@H]3CCC(=O)NC3=O)C4=O)cc2n1` [Compound A287, (S)-3-(1′-((2-(2-methoxyethyl)-2H-indazol-6-yl)methyl)-6-oxo-6,8-dihydro-2H,7H-spiro[furo[2,3-e]isoindole-3,4′-piperidin]-7-yl)piperidine-2,6-dione], under setting [1], the 50% degradation concentration (DC50) was < 0.05 µM and the maximal degradation (Dmax) is 60 to 80%.

On to `O=C1CCC(N2Cc3c(ccc4c3OCC43CCN(Cc4cnn(-c5cccc(Cl)c5)c4)CC3)C2=O)C(=O)N1` (stereo not drawn) [Compound A313, 3-(1′-((1-(3-chlorophenyl)-1H-pyrazol-4-yl)methyl)-6-oxo-6,8-dihydro-2H,7H-spiro[furo[2,3-e]isoindole-3,4′-piperidin]-7-yl)piperidine-2,6-dione], for which, under setting [1], the half-maximal degradation concentration (DC50) lay within 0.05 to 0.2 µM and the Dmax lay in the range of 60 to 80%.

On to `O=C1CCC(N2Cc3c(ccc4c3OCC43CCN(Cc4c(F)ccc5[nH]ccc45)CC3)C2=O)C(=O)N1` (stereo not drawn) [Compound A137, 3-(1′-((5-fluoro-1H-indol-4-yl)methyl)-6-oxo-6,8-dihydro-2H,7H-spiro[furo[2,3-e]isoindole-3,4′-piperidin]-7-yl)piperidine-2,6-dione], for which, under setting [1], the DC50 was < 0.05 µM and the Dmax was in the range of 60 to 80%.

Take `O=C1CCC(N2Cc3c(ccc4c3OCC43CCN(Cc4ccc(F)cc4)CC3)C2=O)C(=O)N1` (stereo not drawn) [Compound A192, 3-(1′-(4-fluorobenzyl)-6-oxo-6,8-dihydro-2H,7H-spiro[furo[2,3-e]isoindole-3,4′-piperidin]-7-yl)piperidine-2,6-dione]: under setting [1], the 50% degradation concentration (DC50) is > 0.5 µM and the Dmax fell in the range of 40 to 60%.

Regarding `O=C1CCC(N2Cc3c(ccc4c3OCC43CCN(Cc4ccc5c(Cl)n[nH]c5c4)CC3)C2=O)C(=O)N1` (stereo not drawn) [Compound A142, 3-(1′-((3-chloro-1H-indazol-6-yl)methyl)-6-oxo-6,8-dihydro-2H,7H-spiro[furo[2,3-e]isoindole-3,4′-piperidin]-7-yl)piperidine-2,6-dione], under setting [1], the 50% degradation concentration (DC50) fell in the range of 0.05 to 0.2 µM and the maximal degradation (Dmax) was in the range of 60 to 80%.

For the compound `Cc1ccc(C(=O)Nc2cccc(CN3CCC4(CC3)COc3c4ccc4c3CN(C3CCC(=O)NC3=O)C4=O)c2)cc1` (stereo not drawn) [Compound A179, N-(3-((7-(2,6-dioxopiperidin-3-yl)-6-oxo-7,8-dihydro-2H,6H-spiro[furo[2,3-e]isoindole-3,4′-piperidin]-1′-yl)methyl)phenyl)-4-methylbenzamide], the Dmax is > 80%. Besides, under setting [1], the DC50 was < 0.05 µM.

In the case of `O=C1CCC(N2Cc3c(ccc4c3OCCC43CCN(Cc4ccc(Cl)cc4F)CC3)C2=O)C(=O)N1` (stereo not drawn) [Compound A10, 3-(1-(4-chloro-2-fluorobenzyl)-7′-oxo-2′,3′,7′,9′-tetrahydro-8′H-spiro[piperidine-4,4′-pyrano[2,3-e]isoindol]-8′-yl)piperidine-2,6-dione], under setting [1], the 50% degradation concentration (DC50) is > 0.5 µM and the maximal degradation (Dmax) was < 40%.

Turning to `CS(=O)(=O)Nc1cccc(CN2CCC3(CC2)COc2c3ccc3c2CN(C2CCC(=O)NC2=O)C3=O)c1` (stereo not drawn) [Compound A159, N-(3-((7-(2,6-dioxopiperidin-3-yl)-6-oxo-7,8-dihydro-2H,6H-spiro[furo[2,3-e]isoindole-3,4′-piperidin]-1′-yl)methyl)phenyl) methanesulfonamide], under setting [1], the DC50 was > 0.5 µM and the Dmax lay in the range of 40 to 60%.

Regarding `O=C1CCC(N2Cc3c(ccc4c3OCC43CCN(Cc4ccccc4-n4cccn4)CC3)C2=O)C(=O)N1` (stereo not drawn) [Compound A156, 3-(1′-(2-(1H-pyrazol-1-yl)benzyl)-6-oxo-6,8-dihydro-2H,7H-spiro[furo[2,3-e]isoindole-3,4′-piperidin]-7-yl)piperidine-2,6-dione], under setting [1], the DC50 was > 0.5 µM and the Dmax was < 40%.

With `CCn1cc(CN2CCC3(CC2)COc2c3ccc3c2CN(C2CCC(=O)NC2=O)C3=O)cn1` (stereo not drawn) [Compound A229, 3-(1′-((1-ethyl-1H-pyrazol-4-yl)methyl)-6-oxo-6,8-dihydro-2H,7H-spiro[furo[2,3-e]isoindole-3,4′-piperidin]-7-yl)piperidine-2,6-dione], under setting [1], the DC50 was > 0.5 µM and the greatest degradation seen (Dmax) was 40 to 60%.
